This note sets out measurements from US5187195A, “Anthraquinone derivatives and preparation thereof” (Fujisawa Pharmaceutical Co., Ltd., priority 1989, dated 1993).

Data set [1] addresses T1, crude receptor membrane fractions of porcine aorta (^125 I-endothelin binding) (Sus scrofa, UniProt Q29010).
T1 construct: tissue Pel-Freez Biologicals (U.S.A.); host or cells: porcine aorta, crude membrane fractions
T1 sequence (Q29010 21-427): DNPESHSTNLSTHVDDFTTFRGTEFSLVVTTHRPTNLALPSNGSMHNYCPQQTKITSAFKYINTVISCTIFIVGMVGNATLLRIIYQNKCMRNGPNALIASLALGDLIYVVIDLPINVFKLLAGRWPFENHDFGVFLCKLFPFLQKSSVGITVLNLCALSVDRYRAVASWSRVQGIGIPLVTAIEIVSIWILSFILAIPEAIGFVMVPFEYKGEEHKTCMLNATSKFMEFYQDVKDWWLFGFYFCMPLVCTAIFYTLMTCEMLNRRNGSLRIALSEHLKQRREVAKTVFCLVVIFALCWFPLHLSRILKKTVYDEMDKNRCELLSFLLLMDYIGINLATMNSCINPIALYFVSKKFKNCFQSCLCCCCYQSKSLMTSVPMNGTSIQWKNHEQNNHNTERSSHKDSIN
The experiment in a line: Radioligand binding assay (^125 I-Endothelin binding to porcine aorta membrane fractions). The note with it: for IC50: concentration required to compete with ^125 I-endothelin (1.67×10^-11 M) for binding to porcine aorta membrane fractions by 50%, 60 minutes, room temperature, pH 7.5. On the procedure: Radioligand Binding Assay
(a) Preparation of crude receptor membrane fractions
Porcine aorta was purchased from Pel-Freez Biologicals (U.S.A.) and stored at -80° C. until use.
Porcine aorta (50 g) was thawed and dissected free from fatty tissue, minced with scissors and then homogenized with a polytron (Brinkmann PT-20, maximal speed for 3×10 sec) in 100 ml buffer (0.25 M sucrose, 10 mM Tris-HCl, 0.1 mM EDTA, pH 7.5).
The homogenate was centrifuged at 10,000 g for 20 minutes at 4° C.
The supernatant, containing the plasma membrane fraction, was centrifuged at 100,000 g for 60 minutes at 4° C., and then resultant pellets were referred to as crude membrane fractions.
The pellets were resuspended in 25 ml of binding assay buffer (50 mM Tris-HCl, 100 mM NaCl, 5 mM MgCl2, 1.5 μg/ml phenylmethylsulfonyl fluoride (PMSF), 120 μg/ml bacitracin, 12 μg/ml leupepcin, 6 μg/ml chymostain, 0.1% bovine serum albumin (BSA), pH 7.5)
The aorta membrane fractions were stored at -80° C. until use.
(b) ^125 I-Endothelin Binding Assay
^125 I-Endothelin (1.67×10^-11 M) (Amersham Japan, specific activity: 2000 Ci/m mol) was incubated with 50 μl of the aorta membrane fractions in binding assay buffer at room temperature (20°-22° C.) for 60 minutes in a final volume of 250 μl.
After incubation, the incubation mixture were filtered through Glass-fiber GF/C filter (pretreated with 0.1% polyethylene imine for 3 hours prior to use) using cell harvester (Brandel M-245). The filters were then washed ten times with a total of 3 ml of the washing buffer (50 mM Tris-HCl, pH 7.5) at 0° C. The filters were counted in a gamma counter (Packard Auto Gamma Model 5650).
The activity of test compounds was expressed as IC50 value, i.e. concentration required to compete with ^125 I-endothelin for binding to prorcine aorta membrane fractions by 50%.

A short description of another data set: Solubility. The class given is physicochemical.
Data set [2] concerns contraction response of rabbit thoracic aorta induced by endothelin. The experiment in a line: Effect on rabbit aorta contraction response of endothelin (isolated strips). The arrangement: species or system rabbit (male albino). Conditions: Oryctolagus cuniculus, endothelin 3.2×10^-9 M, % inhibition of maximum contraction, compound added after full contraction; for inhibition at 100 µM: 1 × 10^-4 M; for inhibition at 10 µM: 1 × 10^-5 M. The method, then:
Effect of FR901366 Substance and FR901367 Substance on Rabbit Aorta of Contraction Response of Endothelin
Thoracic aorta were isolated from freshly killed male albino rabbits (11 weeks old) and cut into 25 mm strips with the intima denuded. After removing fatty tissues, these arterial segments (2 mm width and 25 mm length) were suspended in 25 ml organ chambers filled with Krebs-Ringer solution (113 mM NaCl, 4.8 mM KCl, 2.2 mM CaCl2, 1.2 mM MgCl2, 25 mM NaHCO3, 1.2 mM KH2 PO4, 5.5 mM glucose) maintained at 37° C. and gassed with 95% O2 /5% CO2.
A preload of 1 g was applied after the aorta had been conditioned by application of increasing concentration of KCl. Contractions were measured as an increase in isometric tension.
The test compound was tested against contraction response of endothelin (3.2×10^-9 M). Synthetic endothelin was obtained from Peptide Institute Inc. (Osaka, Japan). The test compound substance was added after the full contraction response induced endothelin.
The activity of the test compounds is expressed as the percentage inhibition of maximum contraction response induced by endothelin and shown in Table 7.

Data set [3] deals with endothelin induced pressor response. The experiment in a line: In vivo pressor effect in conscious rats (inhibition of endothelin induced pressor response). The arrangement: species or system rat (male Wister). The note with it: 10 mg/kg i.v., 3 minutes before endothelin 2.4 μg/kg i.v., three rats. On the procedure:
Assay of In Vivo Pressor Effect in Conscious Rats
Male Wister rats (10 weeks old) were used. The mean arterial blood pressure was recorded from femoral artery via polyethylene catheter connected to the pressure transducer which was coupled to a Biophysiograph 180 system (Nihondenki-San-Ei Instrument Co., Ltd.).
FR901366 substance and endothelin were dissolved in saline and injected in bolus (0.2 ml) through polyethylene cateter inserted via femoral vein.
FR901366 substance was administered 3 minutes before the injection of endothelin. Inhibitory activity of FR90136 substance (10 mg/kg, i. v.) against endothelin (2.4 μg/kg, i. v.) induced pressor response was evaluated with a group of three rats and shown in Table 8.

Usually IC50 stands for the concentration that inhibits the measured activity by half. High values mean weaker potency in that assay, low ones greater potency in that assay. For orientation: inhibition means the relative decrease from the control value, in per cent. Higher therefore signals a strong effect.

For the molecule `CC1=CC(=O)C2(O)C(O)(CCC3(SCC(N)C(=O)O)C(=O)c4c(O)cccc4C(=O)C32O)C1` (centres unmarked) [FR131132], the IC50 in data set [1] was 147 µM. Moreover, the Solubility result is “insoluble” in the data set “Solubility” (chloroform); “sparingly soluble” in the data set “Solubility” (ethanol); “sparingly soluble” in “Solubility” (methanol); “insoluble” in “Solubility” (n-hexane); “sparingly soluble” in the data set “Solubility” (water).

In the case of `COC(=O)C(CSC12CCC3(OC(C)=O)CC(C)=CC(=O)C3(OC(C)=O)C1(OC(C)=O)C(=O)c1cccc(OC(C)=O)c1C2=O)NC(C)=O` (centres unmarked) [FR134625], in data set [1], the IC50 was 356 µM.

Take `CC1=CC(=O)C2(O)C(O)(CCC3(SCC(NC(=O)OC(C)(C)C)C(=O)O)C(=O)c4c(O)cccc4C(=O)C32O)C1` (centres unmarked) [FR131662]: the IC50 in data set [1] was 4.33 µM.

On to `COC(=O)C(CSC12C(=O)c3c(OC(C)=O)cccc3C(=O)C1(O)C1(O)C(=O)C=C(C)CC1(O)CC2OC(C)=O)NC(C)=O` (centres unmarked) [FR129797], for which the IC50 in data set [1] was 10.3 µM.

`CC1=CC(=O)C2(O)C(O)(C1)CC(O)C1(SCC(N)C(=O)O)C(=O)c3c(O)cccc3C(=O)C12O` (centres unmarked) [FR134851] had an IC50 in data set [1] of 20.7 µM. In addition, the Solubility entry in “Solubility” (chloroform) is recorded as “insoluble”; in the data set “Solubility” (ethanol), “soluble”; in the data set “Solubility” (methanol), “soluble”; in the data set “Solubility” (n-hexane), “insoluble”; in “Solubility” (water), “sparingly soluble”.

In data set [1], `CC1=CC(=O)C2(O)C(O)(CCC3(SCC(NC(=O)Cc4ccc(Cl)cc4)C(=O)O)C(=O)c4c(O)cccc4C(=O)C32O)C1` (centres unmarked) [FR131663] gave an IC50 of 38.7 µM.

In turn, `CC[C@H](C)[C@H](NC(=O)C(CSC12CCC3(O)CC(C)=CC(=O)C3(O)C1(O)C(=O)c1cccc(O)c1C2=O)NC(C)=O)C(=O)N[C@@H](Cc1c[nH]c2ccccc12)C(=O)O` (some centres unmarked) [FR134764] gave an IC50 in data set [1] of 12 µM. Compared with the last molecule, the IC50 is about 3.2-fold lower.

For `COC(=O)C(CSC12C(=O)c3c(O)cccc3C(=O)C1(O)C1(O)C(=O)C=C(C)CC1(O)CC2O)NC(C)=O` (centres unmarked) [FR129795], in data set [1], the IC50 was 2.73 µM.

Take `COC(=O)C(CSC12CCC3(O)CC(C)=CC(=O)C3(O)C1(O)C(=O)c1cccc(O)c1C2=O)NC(C)=O` (centres unmarked) [FR134624]: the IC50 in data set [1] was 10.5 µM.

In the case of `CC(=O)NC(CSC12C(=O)c3c(O)cccc3C(=O)C1(O)C1(O)C(=O)C=C(C)CC1(O)CC2O)C(=O)O` (centres unmarked) [FR901367], the inhibition at 100 µM in data set [2] was 75%. This molecule also returned an inhibition at 10 µM in data set [2] of 38.6%. Besides, the IC50 in data set [1] is 0.672 µM. The “competition with ^125 I-endothelin for binding to porcine aorta membrane fractions” value in data set [1] (result in words) is listed as “competes with ^125 I-endothelin for binding”. Besides, the Solubility entry in the data set “Solubility” (acetone) was “sparingly soluble”; in “Solubility” (ethanol), “soluble”; in the data set “Solubility” (ethyl acetate), “sparingly soluble”; in the data set “Solubility” (methanol), “soluble”; in “Solubility” (n-hexane), “insoluble”; in “Solubility” (water), “sparingly soluble”.

`CC1=CC(=O)C2(O)C(O)(CCC3(SCC(NC(=O)C(C)C)C(=O)O)C(=O)c4c(O)cccc4C(=O)C32O)C1` (centres unmarked) [FR131667]: the IC50 in data set [1] was 106 µM.

In data set [1], `CCCCCC(=O)NC(CSC12CCC3(O)CC(C)=CC(=O)C3(O)C1(O)C(=O)c1cccc(O)c1C2=O)C(=O)O` (centres unmarked) [FR131668] showed an IC50 of 17 µM.

Molecule `CC1=CC(=O)C2(O)C(O)(CCC3(SCC(NC(=O)c4ccccc4)C(=O)O)C(=O)c4c(O)cccc4C(=O)C32O)C1` (centres unmarked) [FR131661] showed an IC50 in data set [1] of 22 µM.

`CC[C@H](C)[C@H](NC(=O)C(CSC12CCC3(O)CC(C)=CC(=O)C3(O)C1(O)C(=O)c1cccc(O)c1C2=O)NC(C)=O)C(=O)N[C@@H](Cc1c[nH]c2ccccc12)C(=O)OC` (some centres unmarked) [FR134763] gave an IC50 in data set [1] of 37.2 µM. This IC50 is about 1.7-fold higher than that of the molecule before.

`COC(=O)C(CSC12C(=O)c3c(O)cccc3C(=O)C1(O)C1(O)C(=O)C=C(C)CC1(O)CC2OC(C)=O)NC(C)=O` (centres unmarked) [FR129796]: the IC50 in data set [1] is 13.5 µM.

Molecule `CC(=O)NC(CSC12CCC3(O)CC(C)=CC(=O)C3(O)C1(O)C(=O)c1cccc(O)c1C2=O)C(=O)NCCO` (centres unmarked) [FR134761] gave an IC50 in data set [1] of 10.3 µM. The IC50 values of the last two molecules are within 1.5-fold of each other.

Take `CC(=O)NC(CSC12CCC3(O)CC(C)=CC(=O)C3(O)C1(O)C(=O)c1cccc(O)c1C2=O)C(=O)O` (centres unmarked) [FR901366]: the inhibition at 100 µM in data set [2] stood at 39%. Also, the inhibition at 10 µM in data set [2] was 15%. For the same molecule, the “Inhibition of endothelin pressor response” value was found to be 27.2% in data set [3] (5 min after administration); 50.0% in data set [3] (10 min after administration); 63.3% in data set [3] (20 min after administration); 53.8% in data set [3] (30 min after administration); 66.6% in data set [3] (60 min after administration); 50.0% in data set [3] (120 min after administration). In data set [1], the IC50 was 5.97 µM. Moreover, the Solubility entry in the data set “Solubility” (acetone) was “soluble”; in the data set “Solubility” (chloroform), “sparingly soluble”; in the data set “Solubility” (hexane), “insoluble”; in “Solubility” (methanol) it was “soluble”; in the data set “Solubility” (water), “insoluble”.

In data set [1], `COC(=O)[C@H](Cc1c[nH]c2ccccc12)NC(=O)C(CSC12CCC3(O)CC(C)=CC(=O)C3(O)C1(O)C(=O)c1cccc(O)c1C2=O)NC(C)=O` (some centres unmarked) [FR134762] had an IC50 of 11.9 µM.
